Measurements published in patent publication US9468647B2, “Methods for the treatment of endometriosis” (Miscon Trading S.A., priority 2003, dated 2016).

Test system: endometriosis
Test: Intralesional administration of progesterone in women with endometriosis (case reports)
Assay type: in vivo, human
Conditions: person, 1 g intracystic and 1 g in each bladder nodule, follow up over 12 months
Experimental: They were regularly monitored by pain scores (visual analog), direct questionnaire, and ultrasound examination. […] Aspiration of the endometrioma and intracystic instillation of 1 g of progesterone was performed. Cystoscopy was carried out and 1 g of progesterone was instilled in each of the nodules in the bladder.

## CC(=O)[C@H]1CC[C@H]2[C@@H]3CCC4=CC(=O)CC[C@]4(C)[C@H]3CC[C@]12C [progesterone]
Ovarian endometrioma and bladder wall nodules
  symptoms on follow up: remained symptom free
  quality of life with regard to pelvic pain and urinary symptoms: good
